Test results taken from ChEMBL document CHEMBL1133776, “A rapid computational method for lead evolution: description and application to alpha(1)-adrenergic antagonists” (J Med Chem, 2000).

Target: T1, Adrenergic receptor alpha-1 (Rattus norvegicus, UniProt P15823+P23944+P43140)
T1 sequence (P15823 whole entry): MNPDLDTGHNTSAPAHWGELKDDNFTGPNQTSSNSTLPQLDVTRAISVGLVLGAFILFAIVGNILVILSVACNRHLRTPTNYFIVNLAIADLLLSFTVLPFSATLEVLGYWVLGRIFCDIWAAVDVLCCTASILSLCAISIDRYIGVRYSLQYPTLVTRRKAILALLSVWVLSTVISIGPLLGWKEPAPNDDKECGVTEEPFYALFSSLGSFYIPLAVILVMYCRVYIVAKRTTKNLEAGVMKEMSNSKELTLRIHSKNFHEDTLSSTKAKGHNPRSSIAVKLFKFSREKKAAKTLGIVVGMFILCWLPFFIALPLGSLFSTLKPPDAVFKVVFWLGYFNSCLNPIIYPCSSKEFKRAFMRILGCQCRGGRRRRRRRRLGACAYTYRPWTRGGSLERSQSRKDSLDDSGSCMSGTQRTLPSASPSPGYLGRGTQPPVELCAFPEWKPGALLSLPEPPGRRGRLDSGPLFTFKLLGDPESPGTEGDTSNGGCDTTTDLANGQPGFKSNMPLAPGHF
T1 sequence (P23944 whole entry): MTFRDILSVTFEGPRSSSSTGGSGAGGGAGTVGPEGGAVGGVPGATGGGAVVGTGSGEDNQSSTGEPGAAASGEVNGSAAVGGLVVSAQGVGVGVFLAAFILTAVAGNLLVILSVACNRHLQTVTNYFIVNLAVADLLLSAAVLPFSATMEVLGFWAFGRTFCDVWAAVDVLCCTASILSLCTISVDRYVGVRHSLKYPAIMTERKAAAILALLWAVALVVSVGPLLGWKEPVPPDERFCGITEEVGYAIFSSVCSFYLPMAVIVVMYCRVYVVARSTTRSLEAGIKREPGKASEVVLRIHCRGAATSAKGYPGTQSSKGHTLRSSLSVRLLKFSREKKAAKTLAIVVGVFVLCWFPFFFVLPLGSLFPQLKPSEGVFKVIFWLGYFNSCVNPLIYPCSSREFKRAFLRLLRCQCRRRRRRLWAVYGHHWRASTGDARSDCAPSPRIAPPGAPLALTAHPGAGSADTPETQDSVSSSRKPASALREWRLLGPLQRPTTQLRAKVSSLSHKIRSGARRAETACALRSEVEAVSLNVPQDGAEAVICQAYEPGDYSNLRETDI
T1 sequence (P43140 whole entry): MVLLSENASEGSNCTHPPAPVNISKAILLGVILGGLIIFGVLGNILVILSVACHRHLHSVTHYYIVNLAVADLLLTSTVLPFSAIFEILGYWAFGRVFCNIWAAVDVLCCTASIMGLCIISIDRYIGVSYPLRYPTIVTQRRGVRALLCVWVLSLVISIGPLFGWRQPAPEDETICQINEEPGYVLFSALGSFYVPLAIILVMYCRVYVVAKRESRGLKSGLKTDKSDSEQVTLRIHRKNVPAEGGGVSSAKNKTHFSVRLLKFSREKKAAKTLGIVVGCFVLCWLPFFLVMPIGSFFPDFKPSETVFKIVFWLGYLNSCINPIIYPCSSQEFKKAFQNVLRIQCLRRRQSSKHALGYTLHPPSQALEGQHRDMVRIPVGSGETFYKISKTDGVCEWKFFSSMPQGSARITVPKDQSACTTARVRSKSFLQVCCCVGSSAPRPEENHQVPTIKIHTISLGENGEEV
Assay: Evaluated for binding affinity against alpha-1 adrenergic receptor
Assay type: protein assay

COc1cccc(OC)c1OCCNCC1COc2ccccc2O1 (stereo unspecified)
Ki: 0.54 nM
